Assay results published in publication PMC11578313, “Miniaturized Modular Click Chemistry‐enabled Rapid Discovery of Unique SARS‐CoV‐2 M^pro Inhibitors With Robust Potency and Drug‐like Profile” (Advanced Science, 2024).
Where “and” joins values, the source holds several entries; their conditions need not be identical. Equal values may be shown once. Read-outs that look alike come from different tables or passages of the source.

Assay: In vivo pharmacokinetic study in male ICR mice (compound alone)
Details: for C0: read-out: C0
Protocol: The pharmacokinetics profile of the newly developed antiviral compound C5N17B was subsequently evaluated in male ICR mice that were free from specific pathogens, aiming to assess its potential for therapeutic application in vivo.
A total of six male ICR mice were randomly assigned to two groups. One group received the test drug intravenously at a dosage of 2 mg kg^−1, while the other group received oral administration at a dosage of 10 mg kg^−1. To prepare solutions of C5N17B, 2.39 mg compound was dissolved in a mixture of 0.119 mL DMSO, 0.238 mL polyoxyl 15 hydroxystearate (Solutol), and 2.027 mL normal saline. For the intravenous group, blood samples were collected from the sinus jugular into heparinized centrifugation tubes at various time points after dosing: 5, 15, 30 min, 1, 2, 4, 6, 8, and 24 h. As for the oral administration group, blood samples were collected at similar time points (0.05 mL of blood each time). The collected blood samples were then centrifuged at a speed of 4000 rpm for 10 min to separate plasma, which was subsequently stored at −20 °C until further LC‐MS analysis to determine the concentration of C5N17B. Briefly, the analysis involved adding 20 µL of plasma, sample calibration standard, quality control, and dilution quality control, and blank samples into respective wells on a 96‐well plate. Then each sample was quenched with 200 µL of internal standard (the blank sample was quenched with 200 µL of ACN: MeOH = 1:1), followed by vortex‐mixed for 5 min, and centrifuged for 0.5 min at 4000 rpm, 4 °C. Next, a 100 µL portion of supernatant was transferred to another clean 96‐well plate and diluted with 100 µL of water, vortex‐mixed for 5 min and centrifuged for 10 min at 4000 rpm, 4 °C, then the sample was injected for LC‐MS/MS analysis. All samples were quantified using an LC‐MS/MS‐AR Triple Quad 5500+ (SCIEX, USA) and the ExionLC liquid phase system. The mobile phase was 0.1% formic acid‐water/ACN with gradient elute at a flow rate of 0.8 mL mi^−1n (total time 2.20 min), and the detection wavelength was 225 nm. All blood samples were centrifuged using an Eppendorf 5424R centrifuge and quantified using an LC‐MS/MS‐AR Triple Quad 5500+ (SCIEX, USA). The pharmacokinetic parameters were calculated by WinNolin 8.2 software.

[1] = PO 10 mg/kg, individual mice 4-6, 10 mg/kg
[2] = i.v. 2 mg kg^−1, male ICR mice, n = 3

Cc1cncc(C(=O)N2C[C@H]3CC[C@@H](C2)N3[C@H](c2cccc(F)c2)c2cn(CCc3ccsc3)nn2)c1 [Compound C5N17B]
MRTINF_pred [1]: 4.917 h and 3.0822 h and 6.359 h
MRTlast [1]: 1.896 h and 1.84 h
Tlast [1]: 4 h and 6 h
Vz_F_obs [1]: 837290 mL/kg and 630240 mL/kg and 684762 mL/kg
Vz_F_pred [1]: 906828 mL/kg and 630882 mL/kg and 737020 mL/kg
F, Mean (PO 10 mg/kg, mean of mice 4#-6#): 13.0%
C0, i.v. [2]: 514 ± 164.7 ng/mL
t1/2, i.v. [2]: 6.36 ± 0.341 min
concentration at 5 min (male, ICR, mouse, plasma, iv, 2 mg/kg, IV 2 mg/kg, 5 min (5 min), mouse plasma, individual mice 1#-3#, read-out: Plasma concentration (Calculated Concentration)): 292 ng/mL
concentration at 5 min (male, ICR, mouse, plasma, iv, 2 mg/kg, IV 2 mg/kg, 5 min, individual mice, read-out: plasma concentration): 233 ng/mL
concentration at 5 min (male, ICR, mouse, plasma, iv, 2 mg/kg, IV 2 mg/kg, 5 min, mean of mice 1#-3#, read-out: Plasma concentration, Mean): 237 ng/mL
concentration at 0.5 h (male, ICR, mouse, plasma, iv, 2 mg/kg, IV 2 mg/kg, 0.5 h (30 min), mouse plasma, individual mice 1#-3#, read-out: Plasma concentration (Calculated Concentration)): 18.4 ng/mL
concentration at 0.5 h (male, ICR, mouse, plasma, iv, 2 mg/kg, IV 2 mg/kg, 0.5 h, individual mice, read-out: plasma concentration): 16.1 ng/mL
concentration at 0.5 h (male, ICR, mouse, plasma, iv, 2 mg/kg, IV 2 mg/kg, 0.50 h, mean of mice 1#-3#, read-out: Plasma concentration, Mean): 14.9 ng/mL
concentration at […] (male, ICR, mouse, plasma, iv, 2 mg/kg, IV 2 mg/kg, […] (15 min), mouse plasma, individual mice 1#-3#, read-out: Plasma concentration (Calculated Concentration)): 55.3 ng/mL
AUC(0-t) (male, ICR, mouse, plasma, iv, 2 mg/kg, IV 2 mg/kg, individual mice 1#-3#, read-out: AUC0-t): 78.3 ng·h/mL
AUC(0-inf) (male, ICR, mouse, plasma, iv, 2 mg/kg, IV 2 mg/kg, individual mice 1#-3#, read-out: AUC0-∞): 81.1 ng·h/mL
C0 (male, ICR, mouse, plasma, iv, 2 mg/kg, IV 2 mg/kg, individual mice 1#-3#): 671 ng/mL
clearance (male, ICR, mouse, plasma, iv, 2 mg/kg, IV 2 mg/kg, individual mice 1#-3#, read-out: Cl (converted)): 411 mL/min/kg
Cmax (male, ICR, mouse, plasma, iv, 2 mg/kg, IV 2 mg/kg, individual mice 1#-3#, read-out: Cmax): 292 ng/mL
MRT last (male, ICR, mouse, plasma, iv, 2 mg/kg, IV 2 mg/kg, individual mice 1#-3#, read-out: MRT0-t): 5.42 min
MRT inf (male, ICR, mouse, plasma, iv, 2 mg/kg, IV 2 mg/kg, individual mice 1#-3#, read-out: MRT0-∞): 6.6 min
half-life (male, ICR, mouse, plasma, iv, 2 mg/kg, IV 2 mg/kg, individual mice 1#-3#, read-out: T1/2 (converted)): 6.42 min
Tmax (male, ICR, mouse, plasma, iv, 2 mg/kg, IV 2 mg/kg, individual mice 1#-3#, read-out: Tmax): 5 min
Vd (male, ICR, mouse, plasma, iv, 2 mg/kg, IV 2 mg/kg, individual mice 1#-3#, read-out: Vz): 3.82 L/kg
AUC(0-inf) (male, ICR, mouse, plasma, iv, 2 mg/kg, IV 2 mg/kg, individual mice 1-3, read-out: AUCINF_obs): 81.1 ng·h/mL
AUC(0-inf) (male, ICR, mouse, plasma, iv, 2 mg/kg, IV 2 mg/kg, individual mice 1-3, read-out: AUCINF_pred): 80.7 ng·h/mL
AUC (male, ICR, mouse, plasma, iv, 2 mg/kg, IV 2 mg/kg, individual mice 1-3, read-out: AUCall): 78.3 ng·h/mL
AUC(0-t) (male, ICR, mouse, plasma, iv, 2 mg/kg, IV 2 mg/kg, individual mice 1-3, read-out: AUClast): 78.3 ng·h/mL
C0 (male, ICR, mouse, plasma, iv, 2 mg/kg, IV 2 mg/kg, individual mice 1-3): 671 ng/mL
clearance (male, ICR, mouse, plasma, iv, 2 mg/kg, IV 2 mg/kg, individual mice 1-3, read-out: Cl_obs (converted)): 411 mL/min/kg
concentration at 0.5 h (male, ICR, mouse, plasma, iv, 2 mg/kg, IV 2 mg/kg, individual mice 1-3, read-out: Clast): 18.4 ng/mL
Cmax (male, ICR, mouse, plasma, iv, 2 mg/kg, IV 2 mg/kg, individual mice 1-3, read-out: Cmax): 292 ng/mL
k el (male, ICR, mouse, plasma, iv, 2 mg/kg, IV 2 mg/kg, individual mice 1-3, read-out: Lambda_z (converted)): 0.00179 s⁻¹
MRT inf (male, ICR, mouse, plasma, iv, 2 mg/kg, IV 2 mg/kg, individual mice 1-3, read-out: MRTINF_obs): 6.61 min
MRT inf (male, ICR, mouse, plasma, iv, 2 mg/kg, IV 2 mg/kg, individual mice 1-3, read-out: MRTINF_pred): 6.45 min
MRT last (male, ICR, mouse, plasma, iv, 2 mg/kg, IV 2 mg/kg, individual mice 1-3, read-out: MRTlast): 5.42 min
Tmax (male, ICR, mouse, plasma, iv, 2 mg/kg, IV 2 mg/kg, individual mice 1-3, read-out: Tmax): 5 min
AUC(0-t) (male, ICR, mouse, plasma, iv, 2 mg/kg, IV 2 mg/kg, mean of mice 1#-3#, read-out: AUC0-t, Mean): 63.6 ng·h/mL
AUC(0-inf) (male, ICR, mouse, plasma, iv, 2 mg/kg, IV 2 mg/kg, mean of mice 1#-3#, read-out: AUC0-∞, Mean): 65.9 ng·h/mL
clearance (male, ICR, mouse, plasma, iv, 2 mg/kg, IV 2 mg/kg, mean of mice 1#-3#, read-out: Cl, Mean (converted)): 524 mL/min/kg
Cmax (male, ICR, mouse, plasma, iv, 2 mg/kg, IV 2 mg/kg, mean of mice 1#-3#, read-out: Cmax, Mean): 237 ng/mL
MRT last (male, ICR, mouse, plasma, iv, 2 mg/kg, IV 2 mg/kg, mean of mice 1#-3#, read-out: MRT0-t, Mean): 5.81 min
MRT inf (male, ICR, mouse, plasma, iv, 2 mg/kg, IV 2 mg/kg, mean of mice 1#-3#, read-out: MRT0-∞, Mean): 6.96 min
half-life (male, ICR, mouse, plasma, iv, 2 mg/kg, IV 2 mg/kg, mean of mice 1#-3#, read-out: T1/2, Mean (converted)): 6.36 min
Tmax (male, ICR, mouse, plasma, iv, 2 mg/kg, IV 2 mg/kg, mean of mice 1#-3#, read-out: Tmax, Mean): 5 min
Vd (male, ICR, mouse, plasma, iv, 2 mg/kg, IV 2 mg/kg, mean of mice 1#-3#, read-out: Vz, Mean): 4.79 L/kg
AUC (male, ICR, mouse, plasma, iv, 2 mg/kg, i.v. 2 mg kg^−1, male ICR mice, n = 3, read-out: AUC0‐t, i.v.): 63.6 ± 14.2 ng·h/mL
